From ChEMBL document CHEMBL1201862, “PubChem BioAssay data set” (2004)
Activity calls are given as the source filed them.

Key:
[1] = molecular target: T1, Alkaline phosphatase, tissue-nonspecific isozyme (Homo sapiens, UniProt P05186); assay: TNAP enzyme inhibition by screening hits, dose response, selectivity assay for mouse IAP inhibitor project, biochemical, human TNAP, uHTS hits (AID 488906); assay type: functional
T1 sequence (P05186 whole entry): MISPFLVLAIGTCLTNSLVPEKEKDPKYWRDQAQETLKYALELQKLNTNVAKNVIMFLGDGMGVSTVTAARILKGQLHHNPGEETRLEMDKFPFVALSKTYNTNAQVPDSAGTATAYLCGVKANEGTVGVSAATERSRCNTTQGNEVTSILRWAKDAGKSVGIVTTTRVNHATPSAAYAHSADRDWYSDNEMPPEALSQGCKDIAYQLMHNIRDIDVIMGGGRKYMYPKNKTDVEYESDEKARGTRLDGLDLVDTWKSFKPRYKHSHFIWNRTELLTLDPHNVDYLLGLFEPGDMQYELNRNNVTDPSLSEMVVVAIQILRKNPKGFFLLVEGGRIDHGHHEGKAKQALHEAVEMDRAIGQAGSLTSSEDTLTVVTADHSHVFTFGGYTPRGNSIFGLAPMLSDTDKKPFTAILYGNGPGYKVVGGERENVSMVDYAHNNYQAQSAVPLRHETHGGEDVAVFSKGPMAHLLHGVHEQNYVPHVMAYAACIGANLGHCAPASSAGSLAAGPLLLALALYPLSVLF

[2] = molecular target: Intestinal-type alkaline phosphatase (Homo sapiens, UniProt P09923); assay: inhibition of human intestinal alkaline phosphatase – biochemical, dose response (AID 488876); assay type: functional
[3] = molecular target: Intestinal-type alkaline phosphatase (Mus musculus, UniProt P24822); assay: PubChem AID 488785; assay type: functional
[4] = test system: Streptococcus sp. 'group A'; assay: growth inhibition of control SK(-) GAS strain, dose response, counter-screen for streptokinase expression inhibitor project, luminescence, kanamycin, BacTiterGlo, confirmation (AID 1900); assay type: functional, organism-based
[5] = growth suppression of PTEN-null colon cells, dose response, cell-based, HCT116 PTEN knockout (AID 1047); assay type: functional;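 also: HCT116 colon tumor cells with PTEN knocked out; cells exposed to compound for 60 hours before readout; potency for loss of cell viability measured by luminescence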
[6] = growth suppression of beta-catenin-knockout colon cells, dose response, cell-based, HCT116, human colon tumor (AID 1045); assay type: functional;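 also: HCT116 colon tumor cells with beta catenin knocked out; cells exposed to compound for 60 hours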
[7] = inhibitors of intracellular T. cruzi replication, confirmation, NIH3T3 host cells, beta-gal luminescence (AID 2044); assay type: functional, cell-based;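 also: intracellular parasites grown in NIH/3T3 mouse fibroblasts as host cells; luminescent beta-galactosidase reporter signal from transgenic T. cruzi replicating inside host cells; inhibitors lower the luminescence signal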
[8] = insulin promoter down-regulators in MIN6 cells, imaging, high-content screening, mouse beta cells (AID 1628); assay type: functional
Vero = Vero cell cytotoxicity, cytotoxicity control for flavivirus capping enzyme inhibitors (AID 588742); assay type: functional; details: Chlorocebus sabaeus
Streptococcus = assay: Group A Streptococcus viability loss, dose response, counter-screen for streptokinase expression inhibitor project, luminescence, BacTiterGlo (AID 1915); assay type: functional, organism-based;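 also: potency for reduction of bacterial viability or growth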
[9] = cytotoxicity toward NIH3T3 fibroblasts, dose response, counter-screen, cell-based, ATP luminescence, mouse fibroblasts (AID 2010); assay type: functional;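 also: cells exposed to compound for about 90 hours before reading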
Streptokinase A = molecular target: T2, Streptokinase A (Streptococcus pyogenes serotype M1, UniProt P10520); assay: S. pyogenes streptokinase expression inhibitors, potency, dose response, plasminogen activation absorbance, OD405 (AID 1914); assay type: functional, Streptococcus pyogenes M1 GAS;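 also: secreted streptokinase activity via plasminogen activation per viability signal from cell pellet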
T2 sequence (P10520 whole entry): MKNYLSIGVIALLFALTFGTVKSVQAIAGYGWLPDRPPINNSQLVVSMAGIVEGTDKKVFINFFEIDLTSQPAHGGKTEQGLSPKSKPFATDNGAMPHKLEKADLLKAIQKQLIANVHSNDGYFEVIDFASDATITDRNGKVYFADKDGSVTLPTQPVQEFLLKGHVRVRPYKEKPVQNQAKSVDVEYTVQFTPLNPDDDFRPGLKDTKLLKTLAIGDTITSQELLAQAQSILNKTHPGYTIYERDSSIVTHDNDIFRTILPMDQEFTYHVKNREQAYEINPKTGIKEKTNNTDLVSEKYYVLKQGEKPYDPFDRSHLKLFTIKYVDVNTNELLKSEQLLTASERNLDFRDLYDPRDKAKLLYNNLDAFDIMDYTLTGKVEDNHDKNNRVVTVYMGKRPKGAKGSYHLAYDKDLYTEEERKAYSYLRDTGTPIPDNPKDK

[10] = cytotoxicity in MIN6 insulinoma cells, dose response, cytotoxicity control, cell-based, mouse insulinoma (AID 2122); assay type: functional;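 also: confirmatory high-throughput counterscreen run to flag cytotoxic compounds; mouse MIN-6 beta cells carrying an insulin promoter eGFP reporter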
NS3 = NS3 (Hepatitis C virus, UniProt A3EZJ3); assay: PubChem AID 2173; design: species or system Hepacivirus hominis
Bcl-2-related protein A1 = molecular target: T3, Bcl-2-related protein A1 (Mus musculus, UniProt Q07440); assay type: functional;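 also: confirmatory dose–response counterscreen on Bfl-1, used to check hits from a UBC13 polyubiquitin inhibitor campaign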
T3 sequence (Q07440 whole entry): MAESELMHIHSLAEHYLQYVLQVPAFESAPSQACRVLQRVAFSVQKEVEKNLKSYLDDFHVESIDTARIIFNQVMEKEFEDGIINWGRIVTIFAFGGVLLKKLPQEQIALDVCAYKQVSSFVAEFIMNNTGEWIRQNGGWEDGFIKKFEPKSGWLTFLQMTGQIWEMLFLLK

[11] = molecular target: T4, Calpain-2 catalytic subunit (Sus scrofa, UniProt P43367); assay: pig calpain II inhibitor potency, dose response, biochemical, fluorogenic peptide substrate (AID 1420); assay type: functional
T4 sequence (P43367 whole entry): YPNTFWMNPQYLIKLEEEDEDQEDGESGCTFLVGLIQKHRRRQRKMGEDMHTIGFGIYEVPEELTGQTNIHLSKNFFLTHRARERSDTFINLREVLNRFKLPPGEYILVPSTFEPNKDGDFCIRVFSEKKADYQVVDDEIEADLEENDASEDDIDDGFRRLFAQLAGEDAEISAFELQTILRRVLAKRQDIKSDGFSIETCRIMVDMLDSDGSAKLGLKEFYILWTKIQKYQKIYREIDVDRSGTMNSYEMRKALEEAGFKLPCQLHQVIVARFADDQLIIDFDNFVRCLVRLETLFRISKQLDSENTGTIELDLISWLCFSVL

[12] = molecular target: T5, Ubiquitin-conjugating enzyme E2 N (Homo sapiens, UniProt P61088); assay type: functional
T5 sequence (P61088 whole entry): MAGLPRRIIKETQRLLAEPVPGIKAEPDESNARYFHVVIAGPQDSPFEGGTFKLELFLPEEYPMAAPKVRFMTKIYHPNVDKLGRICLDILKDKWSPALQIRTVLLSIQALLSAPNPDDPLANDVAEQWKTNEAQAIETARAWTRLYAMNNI

[13] = molecular target: T5, Ubiquitin-conjugating enzyme E2 N; assay type: functional; remark: listed apart in the source
Exodeoxyribonuclease V = molecular target: T6, Exodeoxyribonuclease V (Escherichia coli (strain K12), UniProt P04993+P07648+P08394); assay: E. coli RecBCD inhibitors, dose response, counter-screen for AddAB inhibitor project, absorbance, V66 E. coli, mutant T4 phage (AID 492957); assay type: functional, cell-based, Escherichia coli str. K-12 substr. MG1655
T6 sequence (P04993 whole entry): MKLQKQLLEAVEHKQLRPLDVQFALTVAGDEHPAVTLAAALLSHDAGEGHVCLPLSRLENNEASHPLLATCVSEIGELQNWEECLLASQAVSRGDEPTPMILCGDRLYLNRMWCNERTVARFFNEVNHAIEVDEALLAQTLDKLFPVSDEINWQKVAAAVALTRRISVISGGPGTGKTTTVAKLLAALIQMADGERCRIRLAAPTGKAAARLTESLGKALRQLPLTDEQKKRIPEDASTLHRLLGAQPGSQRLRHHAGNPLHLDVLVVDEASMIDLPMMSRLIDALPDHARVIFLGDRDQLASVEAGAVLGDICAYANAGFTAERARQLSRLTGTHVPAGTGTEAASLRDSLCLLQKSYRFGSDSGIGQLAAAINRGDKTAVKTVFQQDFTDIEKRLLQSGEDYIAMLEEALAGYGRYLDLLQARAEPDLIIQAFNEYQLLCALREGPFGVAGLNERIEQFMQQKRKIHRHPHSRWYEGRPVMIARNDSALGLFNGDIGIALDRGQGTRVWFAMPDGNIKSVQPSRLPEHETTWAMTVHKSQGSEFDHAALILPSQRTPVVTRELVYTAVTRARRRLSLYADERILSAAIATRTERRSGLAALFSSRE
T6 sequence (P07648 whole entry): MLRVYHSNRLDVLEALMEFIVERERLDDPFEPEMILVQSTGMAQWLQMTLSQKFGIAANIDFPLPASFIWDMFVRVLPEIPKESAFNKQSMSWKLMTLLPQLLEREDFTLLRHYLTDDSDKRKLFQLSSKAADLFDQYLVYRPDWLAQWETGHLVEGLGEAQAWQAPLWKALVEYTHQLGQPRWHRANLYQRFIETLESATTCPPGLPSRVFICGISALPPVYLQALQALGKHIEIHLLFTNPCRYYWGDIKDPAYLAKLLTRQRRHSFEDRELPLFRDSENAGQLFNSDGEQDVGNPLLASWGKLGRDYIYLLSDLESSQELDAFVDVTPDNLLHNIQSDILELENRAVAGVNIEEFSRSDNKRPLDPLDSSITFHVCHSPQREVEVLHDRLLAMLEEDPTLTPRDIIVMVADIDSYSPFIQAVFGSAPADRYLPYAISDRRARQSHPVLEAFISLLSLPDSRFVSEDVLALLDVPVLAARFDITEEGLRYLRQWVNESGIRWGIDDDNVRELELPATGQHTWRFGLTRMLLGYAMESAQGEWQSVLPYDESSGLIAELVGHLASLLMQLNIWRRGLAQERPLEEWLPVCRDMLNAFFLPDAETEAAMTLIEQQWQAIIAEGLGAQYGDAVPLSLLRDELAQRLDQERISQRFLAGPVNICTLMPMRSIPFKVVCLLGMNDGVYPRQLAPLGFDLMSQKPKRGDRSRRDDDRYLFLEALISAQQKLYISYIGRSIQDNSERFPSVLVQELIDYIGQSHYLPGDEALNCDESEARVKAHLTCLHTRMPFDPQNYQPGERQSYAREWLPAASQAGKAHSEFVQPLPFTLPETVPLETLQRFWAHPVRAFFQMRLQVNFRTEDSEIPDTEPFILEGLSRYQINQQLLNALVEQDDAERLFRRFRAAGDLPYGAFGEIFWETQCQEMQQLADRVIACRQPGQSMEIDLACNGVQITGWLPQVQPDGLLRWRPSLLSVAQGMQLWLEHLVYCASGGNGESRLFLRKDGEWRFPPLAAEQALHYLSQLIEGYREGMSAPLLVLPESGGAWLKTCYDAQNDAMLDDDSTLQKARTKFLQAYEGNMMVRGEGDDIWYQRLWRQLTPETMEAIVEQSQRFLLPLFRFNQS
T6 sequence (P08394 whole entry): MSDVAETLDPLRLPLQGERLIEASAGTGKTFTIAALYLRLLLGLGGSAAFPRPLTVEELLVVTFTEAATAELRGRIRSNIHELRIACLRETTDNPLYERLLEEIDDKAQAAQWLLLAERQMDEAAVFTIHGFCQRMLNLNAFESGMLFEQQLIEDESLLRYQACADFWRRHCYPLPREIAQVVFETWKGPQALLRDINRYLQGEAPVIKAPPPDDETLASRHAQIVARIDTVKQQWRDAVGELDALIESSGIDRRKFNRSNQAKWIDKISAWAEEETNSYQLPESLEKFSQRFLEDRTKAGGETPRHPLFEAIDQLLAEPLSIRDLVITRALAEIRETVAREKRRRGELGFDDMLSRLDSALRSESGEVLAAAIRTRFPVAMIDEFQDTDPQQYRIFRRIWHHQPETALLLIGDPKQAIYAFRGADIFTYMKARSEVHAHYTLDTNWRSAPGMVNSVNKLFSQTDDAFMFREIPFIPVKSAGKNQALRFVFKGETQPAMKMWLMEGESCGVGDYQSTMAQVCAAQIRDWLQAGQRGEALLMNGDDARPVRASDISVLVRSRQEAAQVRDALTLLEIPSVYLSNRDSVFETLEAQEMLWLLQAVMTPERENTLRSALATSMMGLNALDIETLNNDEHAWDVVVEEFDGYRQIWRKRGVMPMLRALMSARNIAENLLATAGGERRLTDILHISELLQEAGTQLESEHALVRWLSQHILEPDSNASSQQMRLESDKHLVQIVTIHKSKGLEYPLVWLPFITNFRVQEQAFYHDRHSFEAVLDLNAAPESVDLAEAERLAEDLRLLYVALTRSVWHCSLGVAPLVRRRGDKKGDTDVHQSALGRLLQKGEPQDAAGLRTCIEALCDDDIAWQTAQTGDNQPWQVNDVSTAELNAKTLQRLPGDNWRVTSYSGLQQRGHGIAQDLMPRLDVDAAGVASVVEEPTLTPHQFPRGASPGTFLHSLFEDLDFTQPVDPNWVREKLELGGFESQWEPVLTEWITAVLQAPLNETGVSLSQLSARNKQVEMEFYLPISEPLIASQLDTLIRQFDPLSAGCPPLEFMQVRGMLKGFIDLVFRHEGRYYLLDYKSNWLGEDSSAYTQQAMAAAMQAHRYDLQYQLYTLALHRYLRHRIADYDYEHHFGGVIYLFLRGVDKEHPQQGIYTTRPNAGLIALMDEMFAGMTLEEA

[14] = Counterscreen for AddAB inhibitors: absorbance-based bacterial cell-based high throughput dose response assay for inhibitors of bacterial viability. [Related pubchem assays (depositor defined):AID435030, AID449728, AID449731, AID488942, AID488955, AID488956]; assay type: functional

Intestinal-type alkaline phosphatase (Mus musculus, UniProt P24822), sequence (P24822 whole entry): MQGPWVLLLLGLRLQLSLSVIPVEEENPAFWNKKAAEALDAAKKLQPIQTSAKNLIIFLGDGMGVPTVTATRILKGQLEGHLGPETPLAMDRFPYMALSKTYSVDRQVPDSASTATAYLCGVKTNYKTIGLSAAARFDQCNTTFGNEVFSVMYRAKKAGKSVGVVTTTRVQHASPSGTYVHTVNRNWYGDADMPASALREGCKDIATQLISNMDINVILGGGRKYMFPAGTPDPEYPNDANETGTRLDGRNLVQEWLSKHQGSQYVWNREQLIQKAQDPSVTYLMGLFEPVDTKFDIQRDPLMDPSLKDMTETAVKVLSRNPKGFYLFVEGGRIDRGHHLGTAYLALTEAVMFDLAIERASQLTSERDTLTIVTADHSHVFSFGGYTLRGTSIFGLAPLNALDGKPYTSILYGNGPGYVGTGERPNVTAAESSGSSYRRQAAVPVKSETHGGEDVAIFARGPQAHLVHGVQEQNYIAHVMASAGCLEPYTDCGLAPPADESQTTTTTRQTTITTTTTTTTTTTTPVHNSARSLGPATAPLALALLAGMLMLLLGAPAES
NS3, sequence (A3EZJ3 whole entry): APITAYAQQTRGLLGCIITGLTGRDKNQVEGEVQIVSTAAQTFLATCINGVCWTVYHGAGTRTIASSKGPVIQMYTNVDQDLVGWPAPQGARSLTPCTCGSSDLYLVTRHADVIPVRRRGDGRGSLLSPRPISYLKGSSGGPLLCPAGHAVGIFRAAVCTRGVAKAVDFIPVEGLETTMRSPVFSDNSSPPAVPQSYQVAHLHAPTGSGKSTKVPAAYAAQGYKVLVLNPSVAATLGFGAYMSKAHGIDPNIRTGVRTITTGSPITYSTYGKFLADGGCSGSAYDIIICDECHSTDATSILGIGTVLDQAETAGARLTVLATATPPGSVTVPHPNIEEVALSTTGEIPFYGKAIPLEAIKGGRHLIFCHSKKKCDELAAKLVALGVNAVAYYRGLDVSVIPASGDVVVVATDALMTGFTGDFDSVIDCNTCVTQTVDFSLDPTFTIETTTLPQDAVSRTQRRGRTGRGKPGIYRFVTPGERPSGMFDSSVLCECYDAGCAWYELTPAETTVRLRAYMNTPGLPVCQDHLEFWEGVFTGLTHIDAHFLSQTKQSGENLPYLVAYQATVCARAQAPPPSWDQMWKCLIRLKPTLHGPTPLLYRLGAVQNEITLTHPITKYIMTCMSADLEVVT
Intestinal-type alkaline phosphatase (Homo sapiens, UniProt P09923), sequence (P09923 whole entry): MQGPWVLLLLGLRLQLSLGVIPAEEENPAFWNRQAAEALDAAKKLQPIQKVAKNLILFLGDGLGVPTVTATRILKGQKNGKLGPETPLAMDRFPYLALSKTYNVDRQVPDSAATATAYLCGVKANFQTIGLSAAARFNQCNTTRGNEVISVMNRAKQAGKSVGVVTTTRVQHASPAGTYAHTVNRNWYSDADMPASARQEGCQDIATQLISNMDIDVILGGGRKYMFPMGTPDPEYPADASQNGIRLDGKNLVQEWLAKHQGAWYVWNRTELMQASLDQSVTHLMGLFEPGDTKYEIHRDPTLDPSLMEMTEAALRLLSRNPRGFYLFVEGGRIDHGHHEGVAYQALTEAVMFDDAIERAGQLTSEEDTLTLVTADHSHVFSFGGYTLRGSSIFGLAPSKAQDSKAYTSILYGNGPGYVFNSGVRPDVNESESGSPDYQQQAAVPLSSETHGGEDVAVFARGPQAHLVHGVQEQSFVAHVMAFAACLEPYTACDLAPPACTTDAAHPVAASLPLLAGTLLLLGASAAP

## NS(=O)(=O)c1ccc(NC(=S)NC(=O)/C=C/c2ccco2)cc1
[1]
  IC50: > 100 µM (inactive)
[2]
  IC50: 8.09 µM (active)
[3]
  IC50: 1.87 µM (active)

## O=C(/C=C/c1ccccc1Cl)c1ccccc(=O)c1O
[4]
  EC50: 1.61 µM (active)
[5]
  EC50: 1.29 µM (active)
[6]
  EC50: 1.07 µM (active)
[7]
  EC50: 1.22 µM (active)
[8]
  IC50: 3.72 µM (active)
Vero
  CC50: 9.47 µM (active)
Streptococcus
  EC50: 9.56 µM (active)
[9]
  EC50: 6.37 µM (active)
Streptokinase A
  EC50: > 150 µM (not active)
[10]
  IC50: 4.43 µM (active)
NS3
  IC50: 4.49 µM (active)

## O=C(CCCCCN1C(=O)c2ccccc2C1=O)Nc1ccc(S(=O)(=O)N2CCCCC2)cc1
Bcl-2-related protein A1
  IC50: > 20 µM (inactive)
[11]
  IC50: 2.38 µM (not active)
[12]
  IC50: 1.34 µM (active)
[13]
  IC50: 0.982 µM (active)

## CC(Sc1ccsc1[N+](=O)[O-])C(=O)NCc1ccco1 (configuration not stated)
Exodeoxyribonuclease V
  IC50: > 119 µM (inactive)
[14]
  IC50: > 119 µM (inactive)

## CC(=O)OCC(=O)[C@@]1(O)CC[C@H]2[C@@H]3CCC4=CC(=O)C=C[C@]4(C)[C@@]3(Cl)[C@@H](Cl)C[C@@]21C [DICHLORISONE ACETATE]
[8]
  IC50: < 0.25 µM (active)
[10]
  IC50: > 16 µM (inactive)
